According to the supplement of paper PMC10331698:
± gives the standard deviation of the averaged measurements.

Key:
Experiment in all cases: level (log10 ratio to DMSO vehicle control); higher = higher biomarker level / cell amount than vehicle control
[1] = compound: C=C(C)C(=O)OCCC(F)(F)C(F)(F)C(F)(F)C(F)(F)C(F)(F)C(F)(F)F [6:2 Fluorotelomer methacrylate]; details: in DMSO
Procedure: (§1)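 BioMAP Diversity Plus panel of 12 human primary cell co-culture systems (3C, 4H, LPS, SAg, BT, BF4T, BE3C, CASM3C, HDF3CGF, KF3CT, MyoF, Mphg). Compounds were added 1 h before stimulation and left for 24 h (MyoF 48 h; BT 72 h for soluble read-outs or 6 d for IgG). Biomarkers were read by ELISA, cytotoxicity by SRB, PBMC viability and proliferation by Alamar Blue. Each well value was divided by the mean of 8 DMSO control wells on the same plate and log10 transformed; duplicate blinded samples were tested at 4 concentrations.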

[2] = compound: C=CC(=O)OCC(F)(F)C(F)(F)C(F)(F)COC(=O)C=C [1H,1H,5H,5H-Perfluoro-1,5-pentanediol diacrylate]; details: 6700 nM; in DMSO
Procedure: as §1

[3] = compound: COC(=O)C(F)(F)C(F)(F)OC(F)(C(F)(F)F)C(F)(F)OC(F)=C(F)F [Methyl perfluoro(3-(1-ethenyloxypropan-2-yloxy)propanoate)]; details: in DMSO
Procedure: as §1

[4] = compound: FC(F)(F)C(F)(F)C(F)(F)C(F)(F)C(F)(F)C(F)(F)C(F)(F)I [1-Iodopentadecafluoroheptane]; details: in DMSO
Procedure: as §1

[5] = compound: FC(F)(F)C(F)(F)C(F)(F)C(F)(F)C(F)(F)C(F)(F)CC1CO1 [3-(Perfluorohexyl)-1,2-epoxypropane]; details: in DMSO
Procedure: as §1

[6] = compound: FC(F)(F)C(F)(F)C(F)(F)CC1CO1 [1H,1H-Heptafluorobutyl epoxide]; details: in DMSO
Procedure: as §1

[7] = compound: FC(F)(F)C(F)(F)C(F)(F)CI [Heptafluorobutyl iodide]; details: in DMSO
Procedure: as §1

[8] = compound: FC(F)(F)C(F)(F)CNCC(F)(F)C(F)(F)F [Bis(1H,1H-perfluoropropyl)amine]; details: in DMSO
Procedure: as §1

[9] = compound: NC(=O)C(F)(F)C(F)(F)C(F)(F)C(F)(F)C(N)=O [Octafluoroadipamide]; details: in DMSO
Procedure: as §1

[10] = compound: NC(=O)C(F)(F)C(F)(F)C(F)(F)C(F)(F)F [Nonafluoropentanamide]; details: in DMSO
Procedure: as §1

[11] = compound: NC(=O)C(F)(F)C(F)(F)C(F)(F)C(F)F; details: in DMSO
Procedure: as §1

[12] = compound: NS(=O)(=O)C(F)(F)C(F)(F)C(F)(F)C(F)(F)C(F)(F)C(F)(F)F [Perfluorohexanesulfonamide]; details: in DMSO
Procedure: as §1

[13] = compound: O=C(O)C(F)(F)C(F)(F)C(F)(F)C(F)(F)C(F)(F)C(F)(F)C(F)(F)C(F)(F)C(F)(F)C(F)F [11-H-Perfluoroundecanoic acid]; details: in DMSO
Procedure: as §1

[14] = compound: O=C(O)C=CC(F)(C(F)(F)F)C(F)(F)F [3-(Perfluoroisopropyl)-2-propenoic acid]; details: in DMSO
Procedure: as §1

[15] = compound: O=S(=O)(Cl)C(F)(F)C(F)(F)C(F)(F)C(F)(F)C(F)(F)C(F)(F)C(F)(F)C(F)(F)F [Perfluoro-1-octanesulfonyl chloride]; details: in DMSO
Procedure: as §1

[16] = compound: O=S(=O)(F)C(F)(F)C(F)(F)C(F)(F)C(F)(F)C(F)(F)C(F)(F)C(F)(F)C(F)(F)F [Perfluorooctanesulfonyl fluoride]; details: in DMSO
Procedure: as §1

[17] = compound: O=S(=O)(O)C(F)(F)C(F)(F)C(F)(F)C(F)(F)C(F)(F)C(F)(F)C(F)(F)C(F)(F)C(F)(F)C(F)(F)F [Sodium perfluorodecanesulfonate]; details: in DMSO
Procedure: as §1

[18] = compound: O=S(=O)(O)CCC(F)(F)C(F)(F)C(F)(F)C(F)(F)C(F)(F)C(F)(F)F [6:2 Fluorotelomer sulfonic acid]; details: in DMSO
Procedure: as §1

[19] = compound: OCC(F)(F)C(F)(F)C(F)(F)CO [Hexafluoroamylene glycol]; details: in DMSO
Procedure: as §1

In the case of MyoF:CD106/VCAM-1, the “level (log10)” value ([1]; 6700 nM) is reported as -0.005 ± 0.037, the “level (log10)” value ([1]; 20000 nM) is reported as -0.0005 ± 0.036 and the “level (log10)” value ([1]; 60000 nM) is reported as -0.003 ± 0.0042. The “level (log10)” value [2] was -0.212 ± 0.015, the “level (log10)” value ([3]; 6700 nM) was -0.03 ± 0.0014 and the “level (log10)” value ([3]; 20000 nM) was -0.0365 ± 0.019. The “level (log10)” value ([4]; 6700 nM) was -0.091 ± 0.0057, the “level (log10)” value ([4]; 20000 nM) was -0.448 ± 0.019 and the “level (log10)” value ([5]; 6700 nM) was 0.002 ± 0.013. The “level (log10)” value ([5]; 20000 nM) was 0.013 ± 0.013, the “level (log10)” value ([5]; 60000 nM) was 0.0205 ± 0.015 and the “level (log10)” value ([6]; 6700 nM) was -0.007 ± 0.013. For the same test system, the “level (log10)” value ([6]; 20000 nM) was -0.007 ± 0.038, the “level (log10)” value ([6]; 60000 nM) was -0.0205 ± 0.03 and the “level (log10)” value ([7]; 6700 nM) was -0.003 ± 0.0085. The “level (log10)” value ([7]; 20000 nM) was -0.018 ± 0.0071, the “level (log10)” value ([7]; 60000 nM) was -0.0055 ± 0.00071 and the “level (log10)” value ([8]; 6700 nM) was 0.0045 ± 0.0078. For the same test system, the “level (log10)” value ([8]; 20000 nM) was 0.0065 ± 0.005, the “level (log10)” value ([8]; 60000 nM) was 0.0095 ± 0.0021 and the “level (log10)” value ([9]; 6700 nM) was -0.006 ± 0.021. The “level (log10)” value ([9]; 20000 nM) was 0.026 ± 0.0057, the “level (log10)” value ([9]; 60000 nM) was 0.002 ± 0.0014 and the “level (log10)” value ([10]; 6700 nM) was -0.016 ± 0.0014. For the same test system, the “level (log10)” value ([10]; 20000 nM) was -0.003, the “level (log10)” value ([10]; 60000 nM) was 0.0055 ± 0.016 and the “level (log10)” value ([11]; 6700 nM) was -0.0085 ± 0.013. For the same test system, the “level (log10)” value ([11]; 20000 nM) was -0.0205 ± 0.013, the “level (log10)” value ([11]; 60000 nM) was -0.0235 ± 0.013 and the “level (log10)” value ([12]; 6700 nM) was -0.0105 ± 0.021. The “level (log10)” value ([12]; 20000 nM) was -0.0165 ± 0.0021, the “level (log10)” value ([12]; 60000 nM) was -0.0655 ± 0.0078 and the “level (log10)” value ([13]; 6700 nM) was 0.0035 ± 0.0078. For the same test system, the “level (log10)” value ([13]; 20000 nM) was -0.152 ± 0.02, the “level (log10)” value ([14]; 6700 nM) was 0.006 ± 0.011 and the “level (log10)” value ([14]; 20000 nM) was 0.0035 ± 0.00071. The “level (log10)” value ([14]; 60000 nM) was -0.0035 ± 0.0035, the “level (log10)” value ([15]; 6700 nM) was -0.0025 ± 0.0064 and the “level (log10)” value ([15]; 20000 nM) was 0.0025 ± 0.025. The “level (log10)” value ([15]; 60000 nM) was -0.0195 ± 0.0092, the “level (log10)” value ([16]; 6700 nM) was -0.0105 ± 0.00071 and the “level (log10)” value ([16]; 20000 nM) was -0.0105 ± 0.005. For the same test system, the “level (log10)” value ([16]; 60000 nM) was -0.0185 ± 0.011, the “level (log10)” value ([17]; 1500 nM) was 0.0005 ± 0.013 and the “level (log10)” value ([17]; 4400 nM) was -0.0005 ± 0.013. The “level (log10)” value ([17]; 13000 nM) was -0.01 ± 0.0014, the “level (log10)” value ([17]; 40000 nM) was -0.035 ± 0.0085 and the “level (log10)” value ([18]; 6700 nM) was -0.003 ± 0.0028. The “level (log10)” value ([18]; 20000 nM) was -0.012 ± 0.0099, the “level (log10)” value ([18]; 60000 nM) was -0.0095 ± 0.005 and the “level (log10)” value ([19]; 6700 nM) was -0.0015 ± 0.0092. The “level (log10)” value ([19]; 20000 nM) was -0.022 ± 0.02 and the “level (log10)” value ([19]; 60000 nM) was -0.0045 ± 0.015.
With MyoF:SRB the “level (log10)” value ([1]; 6700 nM) was -0.0025 ± 0.0092, the “level (log10)” value ([1]; 20000 nM) was -0.0015 ± 0.005 and the “level (log10)” value ([1]; 60000 nM) was 0.0085 ± 0.012. The “level (log10)” value [2] was -0.0205 ± 0.0035, the “level (log10)” value ([3]; 6700 nM) was 0.004 ± 0.0042 and the “level (log10)” value ([3]; 20000 nM) was 0.018 ± 0.0099. The “level (log10)” value ([4]; 6700 nM) was -0.0135 ± 0.00071, the “level (log10)” value ([4]; 20000 nM) was -0.131 ± 0.012 and the “level (log10)” value ([5]; 6700 nM) was -0.007 ± 0.0057. The “level (log10)” value ([5]; 20000 nM) was -0.005 ± 0.0057, the “level (log10)” value ([5]; 60000 nM) was 0.0015 ± 0.011 and the “level (log10)” value ([6]; 6700 nM) was -0.006 ± 0.017. The “level (log10)” value ([6]; 20000 nM) was -0.0045 ± 0.0021, the “level (log10)” value ([6]; 60000 nM) was -0.002 ± 0.0057 and the “level (log10)” value ([7]; 6700 nM) was 0.002 ± 0.0028. For the same test system, the “level (log10)” value ([7]; 20000 nM) was -0.0015 ± 0.0021, the “level (log10)” value ([7]; 60000 nM) was 0.0075 ± 0.011 and the “level (log10)” value ([8]; 6700 nM) was 0 ± 0.0057. For the same test system, the “level (log10)” value ([8]; 20000 nM) was -0.011 ± 0.0057, the “level (log10)” value ([8]; 60000 nM) was -0.011 ± 0.0042 and the “level (log10)” value ([9]; 6700 nM) was -0.004 ± 0.0028. The “level (log10)” value ([9]; 20000 nM) was -0.01 ± 0.0042, the “level (log10)” value ([9]; 60000 nM) was -0.0055 ± 0.0078 and the “level (log10)” value ([10]; 6700 nM) was -0.003 ± 0.0085. For the same test system, the “level (log10)” value ([10]; 20000 nM) was 0.009 ± 0.0085, the “level (log10)” value ([10]; 60000 nM) was 0.005 ± 0.016 and the “level (log10)” value ([11]; 6700 nM) was -0.006 ± 0.0042. For the same test system, the “level (log10)” value ([11]; 20000 nM) was -0.0175 ± 0.012, the “level (log10)” value ([11]; 60000 nM) was -0.003 and the “level (log10)” value ([12]; 6700 nM) was -0.0185 ± 0.0035. For the same test system, the “level (log10)” value ([12]; 20000 nM) was -0.054 ± 0.033, the “level (log10)” value ([12]; 60000 nM) was -0.105 ± 0.0092 and the “level (log10)” value ([13]; 6700 nM) was -0.001 ± 0.0014. The “level (log10)” value ([13]; 20000 nM) was -0.086 ± 0.0028, the “level (log10)” value ([14]; 6700 nM) was -0.005 ± 0.0014 and the “level (log10)” value ([14]; 20000 nM) was -0.0085 ± 0.0035. The “level (log10)” value ([14]; 60000 nM) was 0 ± 0.018, the “level (log10)” value ([15]; 6700 nM) was 0.005 ± 0.014 and the “level (log10)” value ([15]; 20000 nM) was -0.009. For the same test system, the “level (log10)” value ([15]; 60000 nM) was -0.0695 ± 0.0092, the “level (log10)” value ([16]; 6700 nM) was -0.0155 ± 0.012 and the “level (log10)” value ([16]; 20000 nM) was -0.0245 ± 0.025. The “level (log10)” value ([16]; 60000 nM) was 0.004 ± 0.0085, the “level (log10)” value ([17]; 1500 nM) was 0.0205 ± 0.016 and the “level (log10)” value ([17]; 4400 nM) was 0.029 ± 0.0042. The “level (log10)” value ([17]; 13000 nM) was 0.0115 ± 0.012, the “level (log10)” value ([17]; 40000 nM) was -0.018 ± 0.0085 and the “level (log10)” value ([18]; 6700 nM) was -0.002 ± 0.0014. The “level (log10)” value ([18]; 20000 nM) was 0.0005 ± 0.0092, the “level (log10)” value ([18]; 60000 nM) was -0.0015 ± 0.0021 and the “level (log10)” value ([19]; 6700 nM) was 0.002 ± 0.0028. The “level (log10)” value ([19]; 20000 nM) was -0.0045 ± 0.0035 and the “level (log10)” value ([19]; 60000 nM) was -0.002 ± 0.0057.
